{
  "source": "patent US11083197B2",
  "about": "“Herbicidal composition comprising chromone derivatives and a method for weed control” (INVESTIGACIONES BIOLÓGICAS EN AGROQUÍMICOS ROSARIO S.A., priority 2015, dated 2021)",
  "key": {"lettuce": {"test_system": "lettuce", "assay": "Postemergence bioassay with lettuce in Petri dishes", "type": "in vivo", "settings": "Lactuca sativa, post-emergence, read-out: Average growth inhibition (%) as percentage of control", "procedure": "Compounds of formula III and IV above were tested at different concentrations in a postemergence bioassay (in Petri dishes) against lettuce. Lettuce seeds were pre-incubated in Petri dishes with a filter paper and water for 2 days. After that, seedlings (15 mm approx.) were moved to a new Petri dish containing 4 mL of an aqueous solution of each compound or commercial herbicide. Plants length was measured at day 6 (4 days after postemergence application of the compounds). The results were compared to those obtained with acetochlor and glyphosate.\nPlant length's axis starts in 15 mm because seeds were pre-incubated in water, so all seedlings were around 15 mm long at the beginning of the treatment."}, "ryegrass": {"test_system": "ryegrass", "assay": "Postemergence bioassay with ryegrass in Petri dishes", "type": "in vivo", "settings": "Lolium multiflorum, post-emergence, day 6 (4 days after application), read-out: Growth inhibition (%) as percentage of control", "procedure": "Plant length was measured at day 6 (4 days after application of the compounds)\nPlant length's axis starts in 5 mm because seeds were pre-incubated in water, so all seedlings were around 5 mm long at the beginning of the treatment."}, "lettuce (Lactuca sativa)": {"test_system": "lettuce (Lactuca sativa)", "assay": "Germination / dose-response bioassay with lettuce", "type": "in vivo", "settings": "1 mM; 24-well plates; rating scale of 0 to 5", "procedure": "(§1) DCM extract of flowers of A. visnaga (1.6 g) was divided in two 800 mg halves and each one was subjected to column chromatography using an Isolera One system (Biotage), equipped with UV detector (302 and 365 nm) and automatic fraction collector. Separation was performed by normal-phase chromatography column using a SNAP Cartridge KP-Sil (37×157 mm, 50 μm irregular silica, 100 g, Biotage) and a pre-packaged SNAP Samplet Cartridge KP-Sil (37×17 mm, Biotage). A full gradient of hexane:ethyl acetate was used for elution, from 100:0 to 0:100 over 3000 ml. Flow was 40 ml/min and 25 ml fractions were collected. Equal fractions were combined based on similarities on their TLC and chromatogram profiles providing nineteen fractions named I to XIX. All fractions were evaluated for their phytotoxicity on germination bioassay of lettuce (L. sativa) and creeping bentgrass (A. stolonifera).\n(§2) A filter paper and 5 lettuce or 10 mg of creeping bentgrass seeds were placed in each well of a 24-well plate. Stock solutions (10×) of test compounds were prepared in acetone. 180 μl of distilled water were added to each well together with 20 μl of stock solution or acetone in solvent control. Final concentration of acetone was 10% v/v. Plates were sealed with Parafilm, and incubated at 26° C. in a growth chamber set at 173 μmol m^−2 s^−1 continuous photosynthetically active radiation. Phytotoxic activity was qualitatively evaluated by visually comparing germination in each well with solvent control at 7 days. A qualitative estimation of phytotoxicity was obtained by using a rating scale of 0 to 5, where 0 was no effect, and 5 was no germination of seeds. This procedure was also used for testing the phytotoxicity of pure compounds on ryegrass. On this experiment 12-well plates were used. 10 seeds were placed per well and final volume was 300 μl in each one. During dose-response bioassays used for IC50 determination, germination percentage and length of plants were measured at 7 days in order to determine the concentration required for 50% germination and growth inhibition (IC50). All experiments were done in triplicate.\nUsing method described in Example 1, compounds of Formula III and IV above were tested against lettuce and ryegrass.\nThe percentage of germination and length of plants were determined at 7 days. Data represents means of three replicates±SD. The IC50 values, for both germination and growth inhibition by compounds III and IV on lettuce and ryegrass, were obtained from estimated parameters in the regression curves.\nStatistical Analysis. Data from dose-response experiments were analyzed by a log-logistic model^37-38 using the dose-response curve module^39 of R software version 2.2.1.^40 Concentrations required for 50% germination or growth inhibition relative to control (IC50 values) were obtained from estimated parameters in the regression curves. The standard error (SE) of each estimation is provided. Data from phytotoxicity bioassays in the laboratory and greenhouse, ROS and cell death quantifications were analyzed by ANOVA using the InfoStat statistical software version 2015,^41 and Scheffe's test was employed to compare the means at α=0.05."}, "[1]": {"test_system": "creeping bentgrass (A. stolonifera)", "assay": "Germination bioassay with creeping bentgrass", "type": "in vivo, Agrostis stolonifera", "settings": "1 mM; 24-well plates; rating scale of 0 to 5", "procedure": "as §1, §2"}},
  "data": [
    {"smiles": "O=C(O)CNCP(=O)(O)O", "note": "[Glyphosate, reference compound]", "values": [
      {"measurement": "inhibition at 750 µM", "setting": "lettuce", "result": 45, "unit": "%"},
      {"measurement": "inhibition at 750 µM", "setting": "ryegrass; 750 μM", "result": 75, "unit": "%"}
    ]},
    {"smiles": "CCOCN(C(=O)CCl)c1c(C)cccc1CC", "note": "[Acetochlor, reference compound]", "values": [
      {"measurement": "inhibition at 540 µM", "setting": "lettuce; 0.54 mM, day 6 (4 days after postemergence application)", "result": 60, "unit": "%"},
      {"measurement": "inhibition at 540 µM", "setting": "ryegrass; 540 μM", "result": 97, "unit": "%"}
    ]},
    {"smiles": "COc1c2occc2c(OC)c2c(=O)cc(C(=O)O)oc12", "note": "[4,9-dimethoxy-5-oxo-5H-furo[3,2-g]chromen-7-carboxilic acid]", "values": [
      {"measurement": "Phytotoxicity at day 7, Lettuce", "setting": "lettuce (Lactuca sativa)", "result": 3},
      {"measurement": "Phytotoxicity at day 7, Creeping bentgrass", "setting": "[1]", "result": 3}
    ]},
    {"smiles": "O=c1ccoc2ccccc12", "note": "[Chromone, 1-benzopyran-4-one]", "values": [
      {"measurement": "Phytotoxicity at day 7, Lettuce", "setting": "lettuce (Lactuca sativa)", "result": 3},
      {"measurement": "Phytotoxicity at day 7, Creeping bentgrass", "setting": "[1]", "result": 4}
    ]},
    {"smiles": "COc1c2occc2c(O)c2c(=O)cc(C)oc12", "note": "[4-hydroxy-9-methoxy-7-methyl-5H-furo[3,2-g]chromen-5-one]", "values": [
      {"measurement": "Phytotoxicity at day 7, Lettuce", "setting": "lettuce (Lactuca sativa)", "result": 2},
      {"measurement": "Phytotoxicity at day 7, Creeping bentgrass", "setting": "[1]", "result": 1}
    ]},
    {"smiles": "COc1c2ccoc2cc2oc(COC3OC(CO)C(O)C(O)C3O)cc(=O)c12", "note": "(centres unmarked) [Khelloside, Khellol-glucoside]", "values": [
      {"measurement": "Phytotoxicity at day 7, Lettuce", "setting": "lettuce (Lactuca sativa)", "result": 1},
      {"measurement": "Phytotoxicity at day 7, Creeping bentgrass", "setting": "[1]", "result": 2}
    ]},
    {"smiles": "Cc1cc(=O)c2c(O)c3ccoc3c(O)c2o1", "note": "[4,9-dihydroxy-7-methyl-5H-furo[3,2-g]chromen-5-one]", "values": [
      {"measurement": "Phytotoxicity at day 7, Lettuce", "setting": "lettuce (Lactuca sativa)", "result": 3},
      {"measurement": "Phytotoxicity at day 7, Creeping bentgrass", "setting": "[1]", "result": 1}
    ]}
  ]
}
